7 compounds from ChEMBL document CHEMBL5291721, “A preclinical secondary pharmacology resource illuminates target-adverse drug reaction associations of marketed drugs” (Nat Commun, 2023) can be followed below.

Among the targets are Mu-type opioid receptor (Homo sapiens, UniProt P35372); D(3) dopamine receptor (Homo sapiens, UniProt P35462); Histamine H3 receptor (Homo sapiens, UniProt Q9Y5N1); D(1A) dopamine receptor (Homo sapiens, UniProt P21728).
The target in assay [1] is 5-hydroxytryptamine receptor 2B (Homo sapiens, UniProt P41595). In kind it is functional, cell-based.
The target of assay [2] is T1, 5-hydroxytryptamine receptor 1A (Homo sapiens, UniProt P08908).
T1 sequence (P08908 whole entry): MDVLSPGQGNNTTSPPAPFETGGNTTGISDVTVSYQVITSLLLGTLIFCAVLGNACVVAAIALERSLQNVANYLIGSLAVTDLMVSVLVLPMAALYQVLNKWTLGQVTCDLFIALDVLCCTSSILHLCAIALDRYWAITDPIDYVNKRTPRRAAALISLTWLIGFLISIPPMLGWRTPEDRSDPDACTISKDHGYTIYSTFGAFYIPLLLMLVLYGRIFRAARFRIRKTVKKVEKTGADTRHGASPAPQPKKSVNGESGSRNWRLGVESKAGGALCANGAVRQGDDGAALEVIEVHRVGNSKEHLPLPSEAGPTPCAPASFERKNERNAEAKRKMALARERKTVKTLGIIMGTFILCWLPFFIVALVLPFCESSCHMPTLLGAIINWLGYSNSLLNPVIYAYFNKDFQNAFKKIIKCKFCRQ

The target of the next assay is T2, Progesterone receptor (Homo sapiens, UniProt P06401).
T2 sequence (P06401 whole entry): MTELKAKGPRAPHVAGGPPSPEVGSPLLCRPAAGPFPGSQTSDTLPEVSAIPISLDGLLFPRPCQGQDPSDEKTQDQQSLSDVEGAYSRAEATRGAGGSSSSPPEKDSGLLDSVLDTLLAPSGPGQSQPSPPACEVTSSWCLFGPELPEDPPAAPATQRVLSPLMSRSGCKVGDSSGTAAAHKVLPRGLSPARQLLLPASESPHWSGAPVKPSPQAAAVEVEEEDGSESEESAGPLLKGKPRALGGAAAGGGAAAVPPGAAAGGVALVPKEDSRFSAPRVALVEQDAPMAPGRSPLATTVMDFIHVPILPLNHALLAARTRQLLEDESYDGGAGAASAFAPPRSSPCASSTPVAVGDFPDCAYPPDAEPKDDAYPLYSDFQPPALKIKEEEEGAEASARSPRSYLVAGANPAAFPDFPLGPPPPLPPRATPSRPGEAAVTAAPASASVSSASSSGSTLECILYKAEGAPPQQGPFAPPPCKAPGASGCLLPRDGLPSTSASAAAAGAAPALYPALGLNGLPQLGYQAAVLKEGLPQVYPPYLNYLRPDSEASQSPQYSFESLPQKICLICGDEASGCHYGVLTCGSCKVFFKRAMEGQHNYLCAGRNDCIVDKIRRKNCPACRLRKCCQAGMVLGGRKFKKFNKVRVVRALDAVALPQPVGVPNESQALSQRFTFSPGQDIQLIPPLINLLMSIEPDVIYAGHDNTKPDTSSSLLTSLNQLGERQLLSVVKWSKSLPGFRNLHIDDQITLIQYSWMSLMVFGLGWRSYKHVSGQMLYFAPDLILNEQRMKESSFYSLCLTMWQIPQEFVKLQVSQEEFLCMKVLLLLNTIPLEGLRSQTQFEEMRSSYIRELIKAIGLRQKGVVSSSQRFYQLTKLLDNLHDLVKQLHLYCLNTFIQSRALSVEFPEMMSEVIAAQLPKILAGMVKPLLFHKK

Assay [3] concerns the target Sodium-dependent noradrenaline transporter (Homo sapiens, UniProt P23975).
Assay [4] deals with T3, Thromboxane A2 receptor (Homo sapiens, UniProt P21731).
T3 sequence (P21731 whole entry): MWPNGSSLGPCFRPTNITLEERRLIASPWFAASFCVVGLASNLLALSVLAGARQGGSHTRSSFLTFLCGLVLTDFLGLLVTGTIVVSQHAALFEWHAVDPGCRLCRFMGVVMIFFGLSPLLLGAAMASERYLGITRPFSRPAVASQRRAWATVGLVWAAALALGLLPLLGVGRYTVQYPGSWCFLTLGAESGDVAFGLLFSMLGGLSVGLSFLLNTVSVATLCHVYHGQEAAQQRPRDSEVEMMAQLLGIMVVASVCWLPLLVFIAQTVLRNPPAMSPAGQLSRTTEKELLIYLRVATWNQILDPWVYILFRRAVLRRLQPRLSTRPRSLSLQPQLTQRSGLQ
In kind it is functional, cell-based.

Assay [5] addresses 3',5'-cyclic-AMP phosphodiesterase 4A (Homo sapiens, UniProt P27815). In kind it is functional.
Assay [6] deals with T3, Thromboxane A2 receptor. In kind it is functional, cell-based. The source holds these as a separate data set.
A further assay deals with Acetylcholinesterase (Homo sapiens, UniProt P22303). In kind it is functional.
Assay [7] addresses T4, Alpha-2A adrenergic receptor (Homo sapiens, UniProt P08913).
T4 sequence (P08913 whole entry): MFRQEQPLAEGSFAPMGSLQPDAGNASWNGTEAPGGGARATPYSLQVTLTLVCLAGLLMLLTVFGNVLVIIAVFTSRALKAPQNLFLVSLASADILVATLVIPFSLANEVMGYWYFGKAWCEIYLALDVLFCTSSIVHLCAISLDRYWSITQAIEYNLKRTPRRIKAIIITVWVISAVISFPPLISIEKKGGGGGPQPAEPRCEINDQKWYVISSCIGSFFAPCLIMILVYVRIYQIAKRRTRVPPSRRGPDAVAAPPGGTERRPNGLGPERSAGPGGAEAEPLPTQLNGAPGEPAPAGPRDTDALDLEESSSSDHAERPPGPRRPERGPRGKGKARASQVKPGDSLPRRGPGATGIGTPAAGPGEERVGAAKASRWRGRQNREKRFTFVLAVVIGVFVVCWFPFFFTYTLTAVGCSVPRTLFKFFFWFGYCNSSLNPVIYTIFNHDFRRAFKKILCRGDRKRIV

The target in assay [8] is Prostaglandin G/H synthase 1 (Homo sapiens, UniProt P23219). In kind it is functional.
The target in assay [9] is Voltage-gated inwardly rectifying potassium channel KCNH2 (Homo sapiens, UniProt Q12809). In kind it is functional.
Assay [10] concerns the target Sodium-dependent dopamine transporter (Homo sapiens, UniProt Q01959).
In the next assay the target is Prothrombin (Homo sapiens, UniProt P00734). In kind it is functional.
Further: assay procedure not described here.

Chain of Mu-type opioid receptor (P35372 whole entry): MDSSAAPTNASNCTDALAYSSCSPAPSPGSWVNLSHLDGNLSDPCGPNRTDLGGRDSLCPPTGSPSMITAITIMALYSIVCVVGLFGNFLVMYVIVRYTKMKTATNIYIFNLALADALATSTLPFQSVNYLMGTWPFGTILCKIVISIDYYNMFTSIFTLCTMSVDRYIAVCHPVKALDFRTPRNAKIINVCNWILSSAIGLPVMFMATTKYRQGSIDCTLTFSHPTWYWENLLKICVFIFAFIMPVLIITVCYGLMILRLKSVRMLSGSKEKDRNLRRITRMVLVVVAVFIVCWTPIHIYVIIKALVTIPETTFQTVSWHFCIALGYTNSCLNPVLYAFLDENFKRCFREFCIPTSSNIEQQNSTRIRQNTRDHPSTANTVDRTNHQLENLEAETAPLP
Chain of Prostaglandin G/H synthase 1 (P23219 whole entry): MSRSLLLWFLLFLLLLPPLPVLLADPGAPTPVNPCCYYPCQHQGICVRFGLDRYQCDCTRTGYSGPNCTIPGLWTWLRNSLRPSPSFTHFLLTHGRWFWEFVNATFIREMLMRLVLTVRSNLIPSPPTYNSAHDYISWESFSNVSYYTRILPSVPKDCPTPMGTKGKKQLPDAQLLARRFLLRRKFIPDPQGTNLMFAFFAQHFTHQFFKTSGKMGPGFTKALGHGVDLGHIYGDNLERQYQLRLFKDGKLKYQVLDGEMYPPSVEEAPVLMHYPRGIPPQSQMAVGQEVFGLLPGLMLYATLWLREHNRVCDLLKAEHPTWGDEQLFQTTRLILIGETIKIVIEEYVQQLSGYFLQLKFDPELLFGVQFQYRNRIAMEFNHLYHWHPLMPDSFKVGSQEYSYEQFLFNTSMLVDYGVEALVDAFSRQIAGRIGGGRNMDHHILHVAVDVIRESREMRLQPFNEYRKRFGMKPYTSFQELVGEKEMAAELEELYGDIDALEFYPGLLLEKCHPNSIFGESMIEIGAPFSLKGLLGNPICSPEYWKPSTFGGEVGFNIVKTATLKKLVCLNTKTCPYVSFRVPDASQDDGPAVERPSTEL
Chain of Histamine H3 receptor (Q9Y5N1 whole entry): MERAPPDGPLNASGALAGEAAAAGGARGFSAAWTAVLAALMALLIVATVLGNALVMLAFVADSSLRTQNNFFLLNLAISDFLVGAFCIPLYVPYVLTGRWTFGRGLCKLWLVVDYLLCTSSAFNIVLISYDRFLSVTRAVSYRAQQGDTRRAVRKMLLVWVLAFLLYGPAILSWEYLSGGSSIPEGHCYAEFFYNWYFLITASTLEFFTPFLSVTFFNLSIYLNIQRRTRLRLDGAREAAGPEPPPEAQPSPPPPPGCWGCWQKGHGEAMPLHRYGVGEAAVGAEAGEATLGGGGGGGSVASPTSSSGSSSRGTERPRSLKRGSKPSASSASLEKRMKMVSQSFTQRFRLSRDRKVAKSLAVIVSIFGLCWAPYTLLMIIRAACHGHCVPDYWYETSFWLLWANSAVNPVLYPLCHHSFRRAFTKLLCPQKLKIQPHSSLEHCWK
Chain of Voltage-gated inwardly rectifying potassium channel KCNH2 (Q12809 whole entry): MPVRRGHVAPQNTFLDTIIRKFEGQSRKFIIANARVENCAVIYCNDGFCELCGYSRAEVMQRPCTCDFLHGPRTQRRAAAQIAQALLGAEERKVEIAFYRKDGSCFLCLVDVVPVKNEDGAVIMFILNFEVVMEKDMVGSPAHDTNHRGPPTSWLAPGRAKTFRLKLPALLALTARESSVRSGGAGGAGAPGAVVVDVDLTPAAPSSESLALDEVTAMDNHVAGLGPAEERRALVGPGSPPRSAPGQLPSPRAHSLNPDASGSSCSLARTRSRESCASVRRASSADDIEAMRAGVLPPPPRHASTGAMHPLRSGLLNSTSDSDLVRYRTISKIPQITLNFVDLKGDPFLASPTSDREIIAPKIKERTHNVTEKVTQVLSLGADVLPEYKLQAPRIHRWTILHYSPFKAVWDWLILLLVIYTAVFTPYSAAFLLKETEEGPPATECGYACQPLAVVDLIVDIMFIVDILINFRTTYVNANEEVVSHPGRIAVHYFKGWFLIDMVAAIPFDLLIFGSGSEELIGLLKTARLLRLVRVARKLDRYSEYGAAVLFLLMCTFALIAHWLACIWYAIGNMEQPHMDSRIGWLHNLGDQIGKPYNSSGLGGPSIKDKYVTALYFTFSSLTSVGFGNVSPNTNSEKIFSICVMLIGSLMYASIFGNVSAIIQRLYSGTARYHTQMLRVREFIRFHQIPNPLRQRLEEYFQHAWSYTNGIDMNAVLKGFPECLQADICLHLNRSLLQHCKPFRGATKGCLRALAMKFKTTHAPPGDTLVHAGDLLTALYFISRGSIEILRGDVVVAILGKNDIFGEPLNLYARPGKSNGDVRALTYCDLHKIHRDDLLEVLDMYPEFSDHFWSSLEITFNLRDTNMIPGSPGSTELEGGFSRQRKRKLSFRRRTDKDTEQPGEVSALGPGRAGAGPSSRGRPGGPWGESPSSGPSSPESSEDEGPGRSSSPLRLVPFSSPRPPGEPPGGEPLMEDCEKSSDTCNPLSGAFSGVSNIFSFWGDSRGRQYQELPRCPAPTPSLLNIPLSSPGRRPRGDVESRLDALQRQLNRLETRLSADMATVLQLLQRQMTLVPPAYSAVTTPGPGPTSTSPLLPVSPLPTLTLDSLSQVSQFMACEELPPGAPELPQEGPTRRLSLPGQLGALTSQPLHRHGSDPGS
Chain of 3',5'-cyclic-AMP phosphodiesterase 4A (P27815 whole entry): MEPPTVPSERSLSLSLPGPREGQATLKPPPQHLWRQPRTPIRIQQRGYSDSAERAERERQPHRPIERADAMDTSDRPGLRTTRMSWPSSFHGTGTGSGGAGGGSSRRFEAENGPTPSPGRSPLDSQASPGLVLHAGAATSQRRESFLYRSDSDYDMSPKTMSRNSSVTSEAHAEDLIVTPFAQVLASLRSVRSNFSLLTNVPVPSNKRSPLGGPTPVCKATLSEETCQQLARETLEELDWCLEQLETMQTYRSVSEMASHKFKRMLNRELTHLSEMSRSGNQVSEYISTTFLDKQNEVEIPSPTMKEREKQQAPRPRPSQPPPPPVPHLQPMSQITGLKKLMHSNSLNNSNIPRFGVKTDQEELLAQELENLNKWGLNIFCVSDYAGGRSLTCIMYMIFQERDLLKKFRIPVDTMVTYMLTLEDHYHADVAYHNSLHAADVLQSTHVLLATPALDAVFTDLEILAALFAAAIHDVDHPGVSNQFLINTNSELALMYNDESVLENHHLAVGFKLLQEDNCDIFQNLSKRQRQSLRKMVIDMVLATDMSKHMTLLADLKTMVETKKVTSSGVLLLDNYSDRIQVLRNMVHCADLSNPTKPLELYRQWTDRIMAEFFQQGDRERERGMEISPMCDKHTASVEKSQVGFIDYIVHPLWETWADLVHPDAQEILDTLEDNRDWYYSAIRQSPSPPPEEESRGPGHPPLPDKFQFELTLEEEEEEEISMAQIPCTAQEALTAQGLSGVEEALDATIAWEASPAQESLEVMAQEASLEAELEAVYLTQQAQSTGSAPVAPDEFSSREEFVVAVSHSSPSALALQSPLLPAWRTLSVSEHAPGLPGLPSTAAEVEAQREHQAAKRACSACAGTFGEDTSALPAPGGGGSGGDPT
Chain of Sodium-dependent noradrenaline transporter (P23975 whole entry): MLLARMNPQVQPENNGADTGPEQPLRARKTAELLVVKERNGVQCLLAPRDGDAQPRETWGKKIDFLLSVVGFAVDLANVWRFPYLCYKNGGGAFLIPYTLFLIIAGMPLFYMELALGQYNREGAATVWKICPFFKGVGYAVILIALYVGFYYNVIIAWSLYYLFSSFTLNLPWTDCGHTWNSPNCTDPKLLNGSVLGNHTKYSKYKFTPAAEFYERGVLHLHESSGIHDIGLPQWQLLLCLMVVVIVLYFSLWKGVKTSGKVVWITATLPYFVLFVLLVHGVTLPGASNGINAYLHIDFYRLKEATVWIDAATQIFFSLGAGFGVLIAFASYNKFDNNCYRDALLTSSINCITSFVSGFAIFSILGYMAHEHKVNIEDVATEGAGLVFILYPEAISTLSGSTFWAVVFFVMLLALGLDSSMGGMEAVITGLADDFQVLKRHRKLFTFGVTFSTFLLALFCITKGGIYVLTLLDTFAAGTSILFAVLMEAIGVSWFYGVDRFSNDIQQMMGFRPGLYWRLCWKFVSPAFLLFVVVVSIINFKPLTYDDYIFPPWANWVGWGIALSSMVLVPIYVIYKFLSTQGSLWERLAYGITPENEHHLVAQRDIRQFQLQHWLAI
Chain of Acetylcholinesterase (P22303 whole entry): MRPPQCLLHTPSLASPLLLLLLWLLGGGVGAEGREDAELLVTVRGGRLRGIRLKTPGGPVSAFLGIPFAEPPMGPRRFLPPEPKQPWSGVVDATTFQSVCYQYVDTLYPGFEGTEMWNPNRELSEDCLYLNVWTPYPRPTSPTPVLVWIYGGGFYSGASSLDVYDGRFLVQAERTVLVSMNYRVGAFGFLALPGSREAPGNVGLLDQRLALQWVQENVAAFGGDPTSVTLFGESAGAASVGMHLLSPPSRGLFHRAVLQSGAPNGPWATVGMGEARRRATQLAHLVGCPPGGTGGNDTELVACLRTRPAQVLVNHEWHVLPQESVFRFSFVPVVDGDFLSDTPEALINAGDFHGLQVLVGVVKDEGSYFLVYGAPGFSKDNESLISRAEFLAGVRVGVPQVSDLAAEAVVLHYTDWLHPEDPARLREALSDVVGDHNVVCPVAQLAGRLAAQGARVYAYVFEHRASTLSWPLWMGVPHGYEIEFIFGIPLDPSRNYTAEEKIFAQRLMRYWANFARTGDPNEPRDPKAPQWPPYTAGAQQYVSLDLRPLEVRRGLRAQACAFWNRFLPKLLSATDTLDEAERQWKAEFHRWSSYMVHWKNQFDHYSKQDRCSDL

By AC50 is commonly meant the midpoint of the concentration-response curve, whichever way the signal moves. As for `CC(C)C[C@H](NC(=O)[C@@H](O)[C@H](N)Cc1ccccc1)C(=O)O` [UBENIMEX], the concentration at half-maximal activity (AC50) (in assay [1]; on Mu-type opioid receptor; in assay [2]; on D(3) dopamine receptor; at Progesterone receptor; in assay [3]) was greater than 30 µM throughout. The half-maximal activity concentration (AC50) (on Thromboxane A2 receptor [4]; at Histamine H3 receptor; on D(1A) dopamine receptor; in [5]; on Thromboxane A2 receptor [6]; on Acetylcholinesterase) was greater than 30 µM in each case. In addition, the half-maximal activity concentration (AC50) (in [7]; in assay [8]; in [9]; in assay [10]; at Prothrombin) was greater than 30 µM throughout.

Turning to `Cc1ccc(C)c(OCCCC(C)(C)C(=O)O)c1` [GEMFIBROZIL], the AC50 (in [1]; at Mu-type opioid receptor; in assay [2]; at D(3) dopamine receptor; on Progesterone receptor; in [3]) was greater than 30 µM throughout. The AC50 (on Thromboxane A2 receptor [4]; on Histamine H3 receptor; on D(1A) dopamine receptor; in [5]; at Thromboxane A2 receptor [6]; on Acetylcholinesterase) was greater than 30 µM in each case. Further, the AC50 (in assay [7]; in assay [8]; in assay [9]; in assay [10]; at Prothrombin) was greater than 30 µM in each case.

For the compound `COc1ccc2[nH]c([S+]([O-])Cc3ncc(C)c(OC)c3C)nc2c1` (stereo unspecified) [OMEPRAZOLE], the concentration at half-maximal activity (AC50) in [1] is greater than 30 µM; at Mu-type opioid receptor, 12 µM; in assay [2], greater than 30 µM; at D(3) dopamine receptor, 20.7 µM; on Progesterone receptor it was greater than 30 µM; in [3] it was greater than 30 µM. In addition, the AC50 (on Thromboxane A2 receptor [4]; at Histamine H3 receptor; on D(1A) dopamine receptor; in [5]; on Thromboxane A2 receptor [6]; on Acetylcholinesterase) was greater than 30 µM in each case. For the same compound, the AC50 in [7] is greater than 30 µM; in [8], 5.76 µM; in assay [9], 17 µM; in assay [10], greater than 30 µM; at Prothrombin, greater than 30 µM.

Regarding `CC[C@]12CCCN3CCc4c(n(c5ccccc45)[C@@](O)(C(=O)OC)C1)[C@@H]32` [VINCAMINE], the AC50 (in assay [1]; at Mu-type opioid receptor; in assay [2]; at D(3) dopamine receptor; at Progesterone receptor; in [3]) was greater than 30 µM in each case. The AC50 (at Thromboxane A2 receptor [4]; at Histamine H3 receptor; on D(1A) dopamine receptor; in assay [5]; at Thromboxane A2 receptor [6]; at Acetylcholinesterase) was greater than 30 µM throughout. Further, the AC50 in [7] is greater than 30 µM; in [8], greater than 30 µM; in [9], 0.46 µM; in assay [10], greater than 30 µM; on Prothrombin, greater than 30 µM.

With `C[N+](C)(CCCCCC[N+](C)(C)C1c2ccccc2-c2ccccc21)C1c2ccccc2-c2ccccc21` [HEXAFLUORENIUM], the AC50 in [1] was greater than 30 µM; at Mu-type opioid receptor, 1.03 µM; in assay [2], 0.868 µM; on D(3) dopamine receptor, 0.0671 µM; at Progesterone receptor, greater than 30 µM; in assay [3] it was 1.44 µM. Also, the AC50 on Thromboxane A2 receptor [4] is greater than 30 µM; at Histamine H3 receptor, 2.72 µM; on D(1A) dopamine receptor it was 19.3 µM; in assay [5] it was greater than 30 µM; at Thromboxane A2 receptor [6] it was greater than 30 µM; at Acetylcholinesterase it was 0.171 µM. The AC50 in assay [7] is 2.19 µM; in assay [8], greater than 30 µM; in [10] it was 4.5 µM; on Prothrombin, greater than 30 µM.

In the case of `C#C[C@]1(O)C=C[C@H]2[C@@H]3CCC4=CC(=O)CC[C@@H]4[C@H]3CC[C@@]21CC` [GESTODENE], the half-maximal activity concentration (AC50) is greater than 30 µM in assay [1]; 14.9 µM on Mu-type opioid receptor; greater than 30 µM in assay [2]; greater than 30 µM on D(3) dopamine receptor; 0.003 µM on Progesterone receptor; greater than 30 µM in [3]. The AC50 (on Thromboxane A2 receptor [4]; at Histamine H3 receptor; at D(1A) dopamine receptor; in assay [5]; on Thromboxane A2 receptor [6]; on Acetylcholinesterase) was greater than 30 µM in each case. Also, the concentration at half-maximal activity (AC50) (in assay [7]; in assay [8]; in [10]; on Prothrombin) was greater than 30 µM throughout.

For `CN[C@@H]1[C@H](O[C@H]2[C@H](O[C@H]3[C@H](O)[C@@H](O)[C@H](NC(=N)N)[C@@H](O)[C@@H]3NC(=N)N)O[C@@H](C)[C@]2(O)CO)O[C@@H](CO)[C@H](O)[C@H]1O` [DIHYDROSTREPTOMYCIN], the AC50 (in [1]; on Mu-type opioid receptor; in assay [2]; on D(3) dopamine receptor; on Progesterone receptor; in assay [3]) was greater than 30 µM each time. The AC50 (at Thromboxane A2 receptor [4]; on Histamine H3 receptor; at D(1A) dopamine receptor; in assay [5]; at Thromboxane A2 receptor [6]; at Acetylcholinesterase) was greater than 30 µM in each case. The AC50 (in [7]; in [8]; in assay [10]; on Prothrombin) was greater than 30 µM each time.
